How the values were obtained:
[1] = biological target: T1, protein-protein interaction between hSOS1 and hKRASG12C (Homo sapiens, UniProt Q07889); experiment: KRAS-SOS1 interaction assay (HTRF); format: binding; settings: GST-hSOS1 564-1049aa, HIS-hKRASG12C, read-out: KRAS-SOS1 Interaction inhibition IC50
T1 construct: GST-hSOS1, 564-1049aa expressed and purified in-house
T1 sequence (Q07889 564-1049): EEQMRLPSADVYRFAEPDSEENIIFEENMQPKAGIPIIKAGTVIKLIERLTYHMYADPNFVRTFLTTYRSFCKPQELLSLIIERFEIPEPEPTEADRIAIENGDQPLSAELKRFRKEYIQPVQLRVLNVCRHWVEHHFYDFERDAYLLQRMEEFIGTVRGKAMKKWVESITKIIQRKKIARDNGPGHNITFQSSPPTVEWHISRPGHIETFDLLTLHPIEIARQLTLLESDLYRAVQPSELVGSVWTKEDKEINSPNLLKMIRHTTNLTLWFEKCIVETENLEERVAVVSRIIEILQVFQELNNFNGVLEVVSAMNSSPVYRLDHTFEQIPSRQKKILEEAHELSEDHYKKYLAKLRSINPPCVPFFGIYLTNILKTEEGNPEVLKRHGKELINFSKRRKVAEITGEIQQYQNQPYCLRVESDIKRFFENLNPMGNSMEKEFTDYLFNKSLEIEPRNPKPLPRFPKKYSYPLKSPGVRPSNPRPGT
Method: Interaction assay was conducted to evaluate the ability of the compounds to disrupt the protein-protein interactions between hSOS1 and hKRASG12C. Inhibitory effect of compounds on GST-hSOS1, 564-1049aa expressed and purified in-house and HIS-hKRASG12C (R06-32DH, SignalChem) interaction was assessed using HTRF detection technology in biochemical assay. Compounds were pre-incubated with 10-50 nM working solution of hSOS1 per well of a 384 well plate (Perkin Elmer, Cat #6007290) for 10 min at 20° C. in the assay buffer containing 5 mM HEPES, pH 7.4, 150 mM NaCl, 10 mM EDTA, 1 mM DTT, 0.05% BSA fraction V and 0.0025% Igepal. Reaction was initiated by adding 100-300 nM working solution of hKRASG12C in assay buffer. Total assay volume was 15 μL. Reaction was continued for 30-60 min at 20° C. Then detection solution containing MAb Anti-GST-d2 (#61GSTDLA, Cisbio BioAssays) and MAb Anti-HIS-Tb (#61HISTLA, Cisbio BioAssays), all prepared in HTRF detection buffer (#61DB10RDF, Cisbio BioAssays) was added and further incubated for 30-60 min at 20° C. HTRF signal was recorded in PHERAStar microplate reader. Ratio of signal obtained at 665 nm and 620 nm was used to compute the percent inhibition of compound utilizing the following formula: […]

[2] = biological target: T2, nucleotide exchange on hKRASG12C mediated by hSOS1 (Homo sapiens, UniProt Q07889); experiment: Guanine nucleotide exchange assay (GNEA, HTRF); format: biochemical; settings: HIS-hSOS1 564-1049aa mediated GTP loading onto GST-hKRASG12C 1-169aa, read-out: Guanine nucleotide exchange inhibition IC50
T2 construct: HIS-hSOS1, 564-1049aa mediated GTP loading onto GST-hKRASG12C; His (N); made in house
T2 sequence (Q07889 564-1049): T1 sequence (Q07889 564-1049)
Method: Example-154: Guanine nucleotide exchange assay (GNEA) GNEA assay was conducted to evaluate the effects of compounds on the nucleotide exchange on hKRASG12C mediated by hSOS1. Inhibitory effect of compounds on HIS-hSOS1, 564-1049aa mediated GTP loading onto GST-hKRASG12C, 1-169aa both expressed and purified in-house was assessed using HTRF detection technology in biochemical assay. Compounds were pre-incubated with hSOS1 working solution containing 10-50 nM hSOS1 and 200 nM EDA-GTP-DY-647P1 (Custom manufactured, Jena Biosciences) per well of a 384 well plate (Perkin Elmer, Cat #6007290) for 10 min at 20° C. in the assay buffer containing 10 mM HEPES, pH 7.4, 150 mM NaCl, 5 mM MgCl2, 1 mM DTT, 0.05% BSA fraction V and 0.0025% Igepal. Reaction was initiated by adding working solution of hKRASG12C containing 25-125 nM hKRASG12C and MAb Anti-GST-Tb (#61GSTTLA, Cisbio BioAssays) in assay buffer. Total assay volume was 15 μL. Reaction was continued for 30-60 min at 20° C. HTRF signal was recorded in PHERAStar microplate reader. Ratio of signal obtained at 665 nm and 620 nm was used to compute the percent inhibition of compound as follows.

[3] = test system: pERK after EGF stimulation in DLD1 cells; experiment: ERK phosphorylation assay (alphascreen pERK); format: cell-based; settings: Homo sapiens, DLD-1, 2 h compound, 200 ng/ml hEGF for 5 minutes, read-out: ERK phosphorylation inhibition IC50
Method in brief: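 DLD1 cells pretreated with test compounds for 2 h, then stimulated with 200 ng/ml hEGF for 5 min. Lysates assayed by AlphaScreen SureFire for ERK1/2 p-T202/Y204, read after 2 h at 25–28 °C. % inhibition relative to the stimulated-minus-unstimulated vehicle window.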

SMILES	IC50 [1] [nM]	IC50 [2] [nM]	IC50 [3] [nM]
Cc1nc(N[C@H](C)c2cccc(C(F)(F)C(C)(O)CO)c2F)c2cc3c(cc2n1)C(C)(C)C(=O)N3C (single isomer, unassigned) [Compound 76a]	1 to 10	1 to 30	1 to 200
CC[C@]1(C)C(=O)N(C)c2cc3nc(C)nc(N[C@H](C)c4cccc(C(F)(F)C(C)(C)O)c4F)c3cc21 (single isomer, unassigned) [Compound 93a]	1 to 10	31 to 130	1 to 200
CCC1(C)C(=O)N(C)c2cc3nc(C)nc(N[C@H](C)c4cccc(C(F)(F)C(C)(C)O)c4F)c3cc21 (single isomer, unassigned) [Compound 93b]	1 to 10	31 to 130	1 to 200
COCC1(C)C(=O)N(C)c2cc3nc(C)nc(N[C@H](C)c4cccc(C(F)(F)C(C)(C)O)c4F)c3cc21 (single isomer, unassigned) [Compound 94a]	1 to 10	1 to 30	1 to 200
COCC1(C)C(=O)N(C)c2cc3c(N[C@H](C)c4cccc(C(F)(F)C(C)(C)O)c4F)nc(C)nc3cc21 (single isomer, unassigned) [Compound 98a]	1 to 10	1 to 30	1 to 200
CO[C@]1(C)C(=O)N(C)c2cc3c(N[C@H](C)c4cccc(C(F)(F)C(C)(C)O)c4F)nc(C)nc3cc21 (single isomer, unassigned) [Compound 101a]	1 to 10	31 to 130	1 to 200
CCOC1(C)C(=O)N(C)c2cc3c(N[C@H](C)c4cccc(C(F)(F)C(C)(C)O)c4F)nc(C)nc3cc21 (single isomer, unassigned) [Compound 121a]	1 to 10	31 to 130	1 to 200
COCC[C@]1(C)C(=O)N(C)c2cc3c(N[C@H](C)c4cccc(C(F)(F)C(C)(C)O)c4F)nc(C)nc3cc21 (single isomer, unassigned) [Compound 123a]	1 to 10	1 to 30	1 to 200
COC[C@](C)(O)C(F)(F)c1cccc([C@@H](C)Nc2nc(C)nc3cc4c(cc23)N(C)C(=O)C4(C)C)c1F (single isomer, unassigned) [Compound 127b]	1 to 10	1 to 30	1 to 200
Cc1nc(N[C@H](C)c2cccc(C(F)(F)C(C)(C)O)c2F)c2cc3c(cc2n1)[C@]1(CCOC1)C(=O)N3C (single isomer, unassigned) [Compound 128a]	1 to 10	1 to 30	1 to 200
Cc1nc(N[C@H](C)c2cccc(C(F)(F)C(C)(C)O)c2F)c2cc3c(cc2n1)C1(CCOC1)C(=O)N3C (single isomer, unassigned) [Compound 128b]	1 to 10	31 to 130	1 to 200
Cc1nc(N[C@H](C)c2cccc(C(F)(F)C(C)(O)CN(C)C)c2F)c2cc3c(cc2n1)C(C)(C)C(=O)N3C (single isomer, unassigned) [Compound 129a]	1 to 10	1 to 30	1 to 200
CNCC(C)(O)C(F)(F)c1cccc([C@@H](C)Nc2nc(C)nc3cc4c(cc23)N(C)C(=O)C4(C)C)c1F (single isomer, unassigned) [Compound 130a]	1 to 10	1 to 30	1 to 200
COCC[C@@]1(OC)C(=O)N(C)c2cc3c(N[C@H](C)c4cccc(C(F)(F)C(C)(C)O)c4F)nc(C)nc3cc21 (single isomer, unassigned) [Compound 132b]	1 to 10	1 to 30	1 to 200
COC1(C)C(=O)N(C)c2cc3c(N[C@H](C)c4cccc(C(F)(F)C(C)(O)CN(C)C)c4F)nc(C)nc3cc21 (single isomer, unassigned) [Compound 135]	1 to 10	1 to 30	1 to 200
Cc1nc(N[C@H](C)c2cc(N)cc(C(F)(F)F)c2)c2cc3c(cc2n1)OCC(=O)N3C [Compound 1, (R)-4-((1-(3-amino-5-(trifluoromethyl)phenyl)ethyl)amino)-2,6-dimethyl-6H-[1,4]oxazino[3,2-g]quinazolin-7(8H)-one]	1 to 10	31 to 130	1 to 200
Cc1nc(N[C@H](C)c2cccc(C(F)(F)CO)c2F)c2cc3c(cc2n1)OCC(=O)N3C [Compound 2, (R)-4-((1-(3-(1,1-difluoro-2-hydroxyethyl)-2-fluorophenyl)ethyl)amino)-2,6-dimethyl-6H-[1,4]oxazino[3,2-g]quinazolin-7(8H)-one]	1 to 10	1 to 30	1 to 200
CCN1C(=O)COc2cc3nc(C)nc(N[C@H](C)c4cccc(C(F)(F)CO)c4F)c3cc21 [Compound 13, (R)-4-((1-(3-(1,1-difluoro-2-hydroxyethyl)-2-fluorophenyl)ethyl)amino)-6-ethyl-2-methyl-6H-[1,4]oxazino[3,2-g]quinazolin-7(8H)-one]	1 to 10	1 to 30	1 to 200
Cc1nc(N[C@H](C)c2cccc(C(F)(F)CO)c2F)c2cc3c(cc2n1)OC(C)(C)C(=O)N3C [Compound 18, (R)-4-((1-(3-(1,1-difluoro-2-hydroxyethyl)-2-fluorophenyl)ethyl)amino)-2,6,8,8-tetramethyl-6H-[1,4]oxazino[3,2-g]quinazolin-7(8H)-one]	1 to 10	1 to 30	1 to 200
Cc1nc(N[C@H](C)c2cccc(C(F)(F)CO)c2F)c2cc3c(cc2n1)OC1(CC1)C(=O)N3C [Compound 25, (R)-4′-((1-(3-(1,1-difluoro-2-hydroxyethyl)-2-fluorophenyl)ethyl)amino)-2′,6′-dimethylspiro[cyclopropane-1,8′-[1,4]oxazino[3,2-g]quinazolin]-7′(6′H)-one]	1 to 10	1 to 30	1 to 200
Cc1nc(N[C@H](C)c2cccc(C(F)(F)C(C)(C)O)c2F)c2cc3c(cc2n1)N(C)C(C)(C)C(=O)N3C [Compound 28, (R)-4-((1-(3-(1,1-difluoro-2-hydroxy-2-methylpropyl)-2-fluorophenyl)ethyl)amino)-2,6,8,8,9-pentamethyl-8,9-dihydropyrazino[2,3-g]quinazolin-7(6H)-one]	1 to 10	1 to 30	1 to 200
Cc1nc(N[C@H](C)c2cccc(C(F)(F)C(C)(C)O)c2F)c2cc3c(cc2n1)c(=O)n(C)c(=O)n3C [Compound 29, (R)-9-((1-(3-(1,1-difluoro-2-hydroxy-2-methylpropyl)-2-fluorophenyl)ethyl)amino)-1,3,7-trimethylpyrimido[4,5-g]quinazoline-2,4(1H,3H)-dione]	1 to 10	1 to 30	1 to 200

— patent US20260209247A1, “Substituted Tricyclic Compounds” (Lupin Limited, priority 2019, published 2026)
